According to publication PMC9447987, “Long-term memory CD8^+ T cells specific for SARS-CoV-2 in individuals who received the BNT162b2 mRNA vaccine” (Nature Communications, 2022):
Where two headings read alike, the source gives them in different places.

Assays:
[1] = test system: HLA-A*24:02-restricted CD8+ T cells; type: cell-based, human; conditions: for Freq of responder (%): of 17 vaccinated HLA-A*24:02+ individuals (Fig. 4b); for Resp: number of responders (individuals with epitope-specific CD8+ T cells): of 17 vaccinated HLA-A*24:02+ individuals, 1 μM peptide
HLA-A*24:02 = HLA-A*24:02 (Homo sapiens, UniProt P04439, D101N/D140Y/D185E/E176V/E190D/F33S/G103R/G107R/I119L/I121M/I306V/K335N/L105A/L180Q/L300P/N151K/N90K/Q86E/Q94H/R106L/R138H/R89G/T104I/T345S/V100E/W191G/Y123F); test: HLA stabilization assay using RMA-S-A2402 cells; type: binding; conditions: for MFI, HLA-A2402 (APC), representative staining: RMA-S-A2402 cells
[2] = convalescent donor C2, 45.290 weeks since PCR-confirmed diagnosis, peptide-pulsed C1R-A2402
[3] = convalescent donor C3, 2.430 weeks since PCR-confirmed diagnosis, peptide-pulsed C1R-A2402
[4] = convalescent donor C4, 35.000 weeks since PCR-confirmed diagnosis, peptide-pulsed C1R-A2402
[5] = convalescent donor C5, 41.430 weeks since PCR-confirmed diagnosis, peptide-pulsed C1R-A2402
[6] = convalescent donor C6, 20.000 weeks since PCR-confirmed diagnosis, peptide-pulsed C1R-A2402
[7] = convalescent donor C7, 21.710 weeks since PCR-confirmed diagnosis, peptide-pulsed C1R-A2402
[8] = convalescent donor C8, 47.860 weeks since PCR-confirmed diagnosis, peptide-pulsed C1R-A2402
[9] = convalescent donor C9, 21.860 weeks since PCR-confirmed diagnosis, peptide-pulsed C1R-A2402
[10] = convalescent donor C10, 24.570 weeks since PCR-confirmed diagnosis, peptide-pulsed C1R-A2402
[11] = convalescent donor C11, 24.290 weeks since PCR-confirmed diagnosis, peptide-pulsed C1R-A2402
[12] = vaccinated donor V1, 19.000 weeks since 2nd dose, C1R-A2402 pre-pulsed with 1 μM peptide
[13] = vaccinated donor V2, 9.570 weeks since 2nd dose, C1R-A2402 pre-pulsed with 1 μM peptide
[14] = vaccinated donor V3, 8.860 weeks since 2nd dose, C1R-A2402 pre-pulsed with 1 μM peptide
[15] = vaccinated donor V4, 10.430 weeks since 2nd dose, C1R-A2402 pre-pulsed with 1 μM peptide
[16] = vaccinated donor V5, 10.570 weeks since 2nd dose, C1R-A2402 pre-pulsed with 1 μM peptide
[17] = vaccinated donor V6, 9.570 weeks since 2nd dose, C1R-A2402 pre-pulsed with 1 μM peptide
[18] = vaccinated donor V7, 10.140 weeks since 2nd dose, C1R-A2402 pre-pulsed with 1 μM peptide
[19] = vaccinated donor V8, 9.860 weeks since 2nd dose, C1R-A2402 pre-pulsed with 1 μM peptide
[20] = vaccinated donor V9, 20.570 weeks since 2nd dose, C1R-A2402 pre-pulsed with 1 μM peptide
[21] = vaccinated donor V10, 2.000 weeks since 2nd dose, C1R-A2402 pre-pulsed with 1 μM peptide
[22] = vaccinated donor V11, 1.430 weeks since 2nd dose, C1R-A2402 pre-pulsed with 1 μM peptide
[23] = vaccinated donor V12, 1.000 weeks since 2nd dose, C1R-A2402 pre-pulsed with 1 μM peptide
[24] = vaccinated donor V13, 9.000 weeks since 2nd dose, C1R-A2402 pre-pulsed with 1 μM peptide
[25] = vaccinated donor V14, 2.000 weeks since 2nd dose, C1R-A2402 pre-pulsed with 1 μM peptide
[26] = vaccinated donor V15, 6.860 weeks since 2nd dose, C1R-A2402 pre-pulsed with 1 μM peptide
[27] = vaccinated donor V16, 8.860 weeks since 2nd dose, C1R-A2402 pre-pulsed with 1 μM peptide
[28] = vaccinated donor V17, 4.140 weeks since 2nd dose, C1R-A2402 pre-pulsed with 1 μM peptide
[29] = Suppl. Fig. 3b (for Fig. 4a, 4b), peptide(-) 14.8, 26 °C (Maximum) 32.7

Sequence | IFNg-producing cells among CD8 T cells (%) [1, 2] [%] | IFNg-producing cells among CD8 T cells (%) [1, 3] [%] | IFNg-producing cells among CD8 T cells (%) [1, 4] [%] | IFNg-producing cells among CD8 T cells (%) [1, 5] [%] | IFNg-producing cells among CD8 T cells (%) [1, 6] [%] | IFNg-producing cells among CD8 T cells (%) [1, 7] [%] | IFNg-producing cells among CD8 T cells (%) [1, 8] [%] | IFNg-producing cells among CD8 T cells (%) [1, 9] [%] | IFNg-producing cells among CD8 T cells (%) [1, 10] [%] | IFNg-producing cells among CD8 T cells (%) [1, 11] [%] | IFNg-producing cells among CD8 T cells (%) [1, 12] [%] | IFNg-producing cells among CD8 T cells (%) [1, 13] [%] | IFNg-producing cells among CD8 T cells (%) [1, 14] [%] | IFNg-producing cells among CD8 T cells (%) [1, 15] [%] | IFNg-producing cells among CD8 T cells (%) [1, 16] [%] | IFNg-producing cells among CD8 T cells (%) [1, 17] [%] | IFNg-producing cells among CD8 T cells (%) [1, 18] [%] | IFNg-producing cells among CD8 T cells (%) [1, 19] [%] | IFNg-producing cells among CD8 T cells (%) [1, 20] [%] | IFNg-producing cells among CD8 T cells (%) [1, 21] [%] | other results
RVYSTGSNVF [S-RF10] | 1.394 | 0.025 | 0.000 | 0.000 | 0.000 | 0.000 | 0.600 | 0.000 | 0.420 | 0.000 | 0 | 0 | 0.19 | 0.522 | 1.045 | 0 | 0 | 0.127 | 0 | 0.033 | Freq of responder (%) [1]: 5.9%; Resp: number of responders (individuals with epitope-specific CD8+ T cells) [1]: one; IFNg-producing cells among CD8 T cells (%) [1, 22]: 0.679%; IFNg-producing cells among CD8 T cells (%) [1, 23]: 0.143%; IFNg-producing cells among CD8 T cells (%) [1, 24]: 0.275%; IFNg-producing cells among CD8 T cells (%) [1, 25]: 0.249%; IFNg-producing cells among CD8 T cells (%) [1, 26]: 0.267%; IFNg-producing cells among CD8 T cells (%) [1, 27]: 0.199%; IFNg-producing cells among CD8 T cells (%) [1, 28]: 0%; MFI, HLA-A2402 (APC), representative staining (HLA-A*24:02; [29]): 48.0
VFKNIDGYF [S-VF9] | 0.300 | 0.050 | 1.030 | 0.000 | 0.310 | 0.000 | 0.370 | 0.490 | 0.000 | 0.000 | 0 | 0 | 0 | 0.114 | 0.154 | 0 | 0.163 | 0 | 0 | 0 | IFNg-producing cells among CD8 T cells (%) [1, 22]: 0%; IFNg-producing cells among CD8 T cells (%) [1, 23]: 0.427%; IFNg-producing cells among CD8 T cells (%) [1, 24]: 0%; IFNg-producing cells among CD8 T cells (%) [1, 25]: 0.009%; IFNg-producing cells among CD8 T cells (%) [1, 26]: 0%; IFNg-producing cells among CD8 T cells (%) [1, 27]: 0.255%; IFNg-producing cells among CD8 T cells (%) [1, 28]: 0.147%; MFI, HLA-A2402 (APC), representative staining (HLA-A*24:02; [29]): 38.0
VFVSNGTHWF [S-VFF10] | 0.490 | 0.090 | 0.710 | 0.000 | 0.560 | 0.000 | 0.420 | 0.110 | 0.000 | 0.000 | 0 | 0 | 0 | 0.485 | 0.489 | 0 | 0 | 0 | 3.184 | 0 | Freq of responder (%) [1]: 5.9%; Resp: number of responders (individuals with epitope-specific CD8+ T cells) [1]: one; IFNg-producing cells among CD8 T cells (%) [1, 22]: 0%; IFNg-producing cells among CD8 T cells (%) [1, 23]: 0.283%; IFNg-producing cells among CD8 T cells (%) [1, 24]: 0.024%; IFNg-producing cells among CD8 T cells (%) [1, 25]: 0%; IFNg-producing cells among CD8 T cells (%) [1, 26]: 0.253%; IFNg-producing cells among CD8 T cells (%) [1, 27]: 0%; IFNg-producing cells among CD8 T cells (%) [1, 28]: 0%; MFI, HLA-A2402 (APC), representative staining (HLA-A*24:02; [29]): 22.3; MFI, HLA-A2402 (APC), representative staining (HLA-A*24:02; Suppl. Fig. 3c (for Fig. 4c), peptide(-) 11.7, 26 °C (Maximum) 28.9): 37.9
YYHKNNKSW [S-YW9] | 0.653 | 0.000 | 0.000 | 0.000 | 0.000 | 0.140 | 0.310 | 0.000 | 0.000 | 0.550 | 0.268 | 0 | 0.343 | 0 | 0.139 | 0.061 | 0.182 | 0.035 | 0.232 | 0 | IFNg-producing cells among CD8 T cells (%) [1, 22]: 0.769%; IFNg-producing cells among CD8 T cells (%) [1, 23]: 0%; IFNg-producing cells among CD8 T cells (%) [1, 24]: 0%; IFNg-producing cells among CD8 T cells (%) [1, 25]: 0%; IFNg-producing cells among CD8 T cells (%) [1, 26]: 0.709%; IFNg-producing cells among CD8 T cells (%) [1, 27]: 0.019%; IFNg-producing cells among CD8 T cells (%) [1, 28]: 0.154%; MFI, HLA-A2402 (APC), representative staining (HLA-A*24:02; [29]): 10.2; binding to HLA-A*24:02 (in words) (HLA-A*24:02; […], 16 peptides tested at 100 μM): did not bind
YYVGYLQPRTF [S-YF11] | 0.461 | 0.120 | 0.300 | 0.738 | 0.200 | 0.450 | 0.930 | 0.000 | 0.090 | 0.000 | 0.469 | 0.861 | 0.031 | 0 | 0 | 0.019 | 0 | 0 | 0 | 0 | IFNg-producing cells among CD8 T cells (%) [1, 22]: 0%; IFNg-producing cells among CD8 T cells (%) [1, 23]: 0%; IFNg-producing cells among CD8 T cells (%) [1, 24]: 0.015%; IFNg-producing cells among CD8 T cells (%) [1, 25]: 0%; IFNg-producing cells among CD8 T cells (%) [1, 26]: 0.234%; IFNg-producing cells among CD8 T cells (%) [1, 27]: 0.141%; IFNg-producing cells among CD8 T cells (%) [1, 28]: 0.134%; MFI, HLA-A2402 (APC), representative staining (HLA-A*24:02; [29]): 26.7
